“Also recorded” adds a separate entry of the source.
How the values were obtained:
Type in all cases: cell-based, human
[1] = tested on: MMP-9; assay: Zymography of conditioned media
Method: FIG. 9. FGF-2 stimulates Matrigel invasion of N-cadherin-expressing cells and expression of MMP-9. (A) Invasion through Matrigel-coated filters of control and N-cadherin-expressing cells, pretreated for 24 h with 10 ng/ml of FGF-2 or left untreated, as measured 5 h after inoculation into Transwell chambers. The invading cells were stained (see Materials and Methods) and photographed using a digital microscope camera. Each panel illustrates a sample representing three to six filters. (B) Gelatinolytic activity of conditioned media of control (Neo-mass) (lanes 1 and 2) or N-cadherin-transfected MCF-7 cells (N-cad-mas, N-cad-5, and N-cad-17; lanes 3-8) that were either treated with FGF-2, or left untreated, as indicated. […]
FIG. 12. […] A. MCF-7 breast cancer cells expressing either control vector (control) or N-cadherin (N-cad-5) were treated with or without FGF-2 and the relative activation of MAPK was assessed by blotting the lysates with anti phospho-MAPK (P-MAPK) (upper panel A, lanes 1-4) against the total levels of MAPK in the same lysates (T-MAPK) (lower panel A, lanes 1-4). […]
Secreted metalloproteinases were detected and characterized by zymography (Nakajima I et al., 1995, Br. J. Cancer. 71:1039-1045). […]

[2] = tested on: MAPK; assay: Anti-phospho-MAPK immunoblot of cell lysates
Method: FIG. 12. N-cadherin synergizes with FGF-2 in promoting MAPK activation and MMP-9 production. A. MCF-7 breast cancer cells expressing either control vector (control) or N-cadherin (N-cad-5) were treated with or without FGF-2 and the relative activation of MAPK was assessed by blotting the lysates with anti phospho-MAPK (P-MAPK) (upper panel A, lanes 1-4) against the total levels of MAPK in the same lysates (T-MAPK) (lower panel A, lanes 1-4). B. MCF-7 breast cancer cells expressing N-cadherin (N-cad-5) were treated with or without FGF-2 in the absence or presence of a potent inhibitor of MAPK ([…]) and cell lysates were blotted with anti-P-MAPK antibodies (lower panel B) or assayed for MMP (Matrix Metallo Protease) production (upper panel B).
To determine whether N-cadherin/FGF-2-stimulated expression of MMP-9 is caused by increased MAPK activity, levels of MAPK activation in N-cadherin-expressing MCF-7 cells (N-cad-5) were compared to those found in control MCF-7 cells (Neo-mass) in response to FGF-2. Serum-starved control and N-cad-5 cells were treated with 10 ng/mL FGF-2 for 10 min and 30 μg of cell lysate were subjected to SDS-PAGE and immunobloting with either anti-phospho-MAPK (P-MAPK) or anti-total MAPK (T-MAPK).

[3] = tested on: N-cadherin-expressing cell lines (N-cad-mass, N-cad-5, N-cad-17); assay: Transwell migration after FGF-2 pretreatment; conditions: pretreated 24 h with 10 ng/ml FGF-2, measured 5 h after inoculation into Transwell chambers
Method: (§1) FIG. 8. Stimulates cell migration of N-cadherin-expressing cells. The motility of control (Neo-mass) and N-cadherin-expressing cells (N-cad-mass, N-cad-5, and N-cad-17), pretreated for 24 h with 10 ng/ml of FGF-2 or left untreated, was measured 5 h after inoculation into the Transwell chambers. (A) The migrating cells were fixed, stained, and photographed; each panel represents an example of 3-6 replicates. (B) Bar graphs represent quantitation of triplicate wells. The experiment was repeated six times.
(§2) The ability of cells to migrate through control (migration) or invade through Matrigel-coated filters (invasion) was measured in a Boyden chamber, 8-micron Transwell filters, which were coated with or without 50 μg Matrigel (Becton Dickinson & Co.), were used according to standard protocols (Albini A et al., 1987, Cancer Res 47:3239-3245). Fibroblast conditioned medium, which was obtained by a 24-h incubation of NTH-3T3 cells with 50 μg/mL ascorbic acid in serum-free DME media, was placed in the lower chamber as a chemoattractant. […] Values for invasion were expressed as the average number of migrated cells bound per microscopic field over four fields per assay and expressed as averages for triplicate experiments.

[4] = tested on: Neo-mass cell line; assay: Transwell migration after FGF-2 pretreatment; conditions: pretreated 24 h with 10 ng/ml FGF-2, measured 5 h after inoculation into Transwell chambers
Method: as §1, §2

[5] = tested on: N-cadherin-expressing MCF-7 cells; assay: Matrigel invasion assay after FGF-2 pretreatment; conditions: N-cad mass, N-cad-5 and N-cad-17; 10 ng/ml FGF-2 for 24 h, 5 h of incubation
Method: (§3) FIG. 9. FGF-2 stimulates Matrigel invasion of N-cadherin-expressing cells and expression of MMP-9. (A) Invasion through Matrigel-coated filters of control and N-cadherin-expressing cells, pretreated for 24 h with 10 ng/ml of FGF-2 or left untreated, as measured 5 h after inoculation into Transwell chambers. The invading cells were stained (see Materials and Methods) and photographed using a digital microscope camera. Each panel illustrates a sample representing three to six filters. (B) Gelatinolytic activity of conditioned media of control (Neo-mass) (lanes 1 and 2) or N-cadherin-transfected MCF-7 cells (N-cad-mas, N-cad-5, and N-cad-17; lanes 3-8) that were either treated with FGF-2, or left untreated, as indicated. […] The ability of cells to migrate through control (migration) or invade through Matrigel-coated filters (invasion) was measured in a Boyden chamber, 8-micron Transwell filters, which were coated with or without 50 μg Matrigel (Becton Dickinson & Co.), were used according to standard protocols (Albini A et al., 1987, Cancer Res 47:3239-3245). […] Values for invasion were expressed as the average number of migrated cells bound per microscopic field over four fields per assay and expressed as averages for triplicate experiments.

[6] = tested on: Neo-mass cell; assay: Matrigel invasion assay after FGF-2 pretreatment; conditions: 10 ng/ml FGF-2 for 24 h, 5 h of incubation
Method: as §3

[7] = tested on: MMP-2; assay: Zymography of conditioned media; conditions: N-cadherin transfectants, FGF-2 10 ng/ml
Method: (§4) FIG. 9. FGF-2 stimulates Matrigel invasion of N-cadherin-expressing cells and expression of MMP-9. (A) Invasion through Matrigel-coated filters of control and N-cadherin-expressing cells, pretreated for 24 h with 10 ng/ml of FGF-2 or left untreated, as measured 5 h after inoculation into Transwell chambers. The invading cells were stained (see Materials and Methods) and photographed using a digital microscope camera. Each panel illustrates a sample representing three to six filters. (B) Gelatinolytic activity of conditioned media of control (Neo-mass) (lanes 1 and 2) or N-cadherin-transfected MCF-7 cells (N-cad-mas, N-cad-5, and N-cad-17; lanes 3-8) that were either treated with FGF-2, or left untreated, as indicated. (C) Gelatinolytic activity of conditioned media of Neo-mass, N-cad-mass, N-cad-5, and N-cad- 17 that were pretreated for 24 h either with 10 ng/ml of FGF-2 (lanes 1, 3, 5 and 7, respectively) or 5 μg/ml insulin (lanes 2, 4, 6, and 8, respectively).
(§5) Secreted metalloproteinases were detected and characterized by zymography (Nakajima I et al., 1995, Br. J. Cancer. 71:1039-1045). Conditioned media were obtained by a 30-h incubation of N-cadherin and control transfected cells, which were treated overnight with or without FGF-2 (10 ng/ml) and heparin (0.1 mg/ml) in serum-free media. Conditioned media (20 μl) were loaded on 8% SDS PAGE gels that had been copolymerized with 1 mg/ml gelatin. Electrophoresis was performed under nonreducing conditions at 100 V for 2 h at 4° C. Gels were washed once for 30 min in 2.5% Triton X-100 to remove SDS, and were incubated in collagenase buffer (100 mM Tris-HCl pH 8.0, 5 mM CaCl2, 0.02% NaN3) for 40 h at 37° C. Gels were stained with 0.5% Coomassie blue in 30% methanol/10% acetic acid for 30 min at room temperature and destained in 30% methanol/10% acetic acid three times for 15 min. The presence of metalloproteinases was indicated by an unstained proteolytic zone in the substrate. […]

[8] = tested on: MMP; assay: Zymography of conditioned media
Method: as §4, §5

[9] = N-cad-5 cells, FGF-2 plus inhibitor

## COc1cccc(-c2cc(=O)c3ccccc3o2)c1N [PD 90859, reference compound]
[1]; [9]
  production of MMP-9 induced by FGF-2: blocked
[2]; [9]
  phosphorylation of MAPK induced by FGF-2: blocked effectively

## FGF-2: growth factor FGF-2, purchased from Pepro Tech
[3]
  motility: dramatic increase
[4]
  motility: did not affect
[5]
  invasiveness through Matrigel-coated filters: further enhanced; also recorded: stimulates
[6]
  invasion through Matrigel-coated filters: not effect
[1]; all N-cadherin transfectants, FGF-2 10 ng/ml, conditioned media
  expression of MMP-9: dramatically increased; also recorded: stimulates
[7]
  MMP-2 production: absence of detectable effects
[8]; Neo-mass cells, FGF-2 10 ng/ml, conditioned media
  MMP production: no effect
[2]; N-cad-5 cells, 10 ng/mL FGF-2 for 10 min
  MAPK phosphorylation: marked increase
[2]; control MCF-7 cells, in the presence of FGF-2
  MAPK phosphorylation (ERK/P44 isoform): only low levels of phosphorylation

## insulin: Insulin from Sigma, used at a concentration that acts through the IGF-1 receptor
[8]; N-cad-mass, N-cad-5, N-cad-17, 5 μg/ml insulin for 24 h
  MMP levels: no effect

Source: patent US20030054985A1, “N-cadherin modulated migration, invasion, and metastasis” (priority 2000, published 2003)
